In PubChem BioAssay AID1918944 (Molecular Pharmacology Branch, DTP, NCI, 2023):
Where “and” joins values, the source holds several entries; their conditions need not be identical. Identical values can stand only once. One block for each compound: values may come before it.

Tested on: 786-0 complex spheroid viability
Assay: Anticancer human tumor 786-0 cell line growth inhibition;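 note: spheroids exposed to agents for seven days before readout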
Conditions: for viability, T/C: stronger effect = lower value
Outline: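 Multicellular complex spheroids of tumor cells with human endothelial cells (HUVEC) and mesenchymal stem cells; the LSD1 inhibitor iadademstat was combined with standard-of-care or investigational agents. Top concentration at or near clinical Cmax, half-log dilutions; final DMSO ≤0.25%.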

[1] = curve of first compound, second compound 0.1 µM
[2] = curve of first compound, second compound 0.316 µM
[3] = curve of first compound, second compound 1 µM
[4] = curve of first compound, second compound 3.16 µM
[5] = curve of first compound, second compound 10 µM
[6] = second compound 0.1 µM, first compound 0.00949 µM
[7] = second compound 0.1 µM, first compound 0.03 µM
[8] = second compound 0.1 µM, first compound 0.0949 µM
[9] = second compound 0.1 µM, first compound 0.3 µM
[10] = second compound 0.1 µM, first compound 0.949 µM
[11] = second compound 0.1 µM, first compound 3 µM
[12] = second compound 0.316 µM, first compound 0.00949 µM
[13] = second compound 0.316 µM, first compound 0.03 µM
[14] = second compound 0.316 µM, first compound 0.0949 µM
[15] = second compound 0.316 µM, first compound 0.3 µM
[16] = second compound 0.316 µM, first compound 0.949 µM
[17] = second compound 0.316 µM, first compound 3 µM
[18] = second compound 1 µM, first compound 0.00949 µM
[19] = second compound 1 µM, first compound 0.03 µM
[20] = second compound 1 µM, first compound 0.0949 µM
[21] = second compound 1 µM, first compound 0.3 µM
[22] = second compound 1 µM, first compound 0.949 µM
[23] = second compound 1 µM, first compound 3 µM
[24] = second compound 3.16 µM, first compound 0.00949 µM
[25] = second compound 3.16 µM, first compound 0.03 µM
[26] = second compound 3.16 µM, first compound 0.0949 µM
[27] = second compound 3.16 µM, first compound 0.3 µM
[28] = second compound 3.16 µM, first compound 0.949 µM
[29] = second compound 3.16 µM, first compound 3 µM
[30] = second compound 10 µM, first compound 0.00949 µM
[31] = second compound 10 µM, first compound 0.03 µM
[32] = second compound 10 µM, first compound 0.0949 µM
[33] = second compound 10 µM, first compound 0.3 µM
[34] = second compound 10 µM, first compound 0.949 µM
[35] = second compound 10 µM, first compound 3 µM

Compound: O=C(C=Cc1cccc(S(=O)(=O)Nc2ccccc2)c1)NO + NC1CC1c1ccc(-c2cccc(O)c2)cc1
IC50 [1]: 1300 nM
IC50 [2]: 1300 nM
IC50 [3]: 1250 nM
IC50 [4]: 1110 nM
IC50 [5]: 840 nM
viability, T/C [6]: 111%
viability, T/C [7]: 107%
viability, T/C [8]: 111%
viability, T/C [9]: 97%
viability, T/C [10]: 66.1%
viability, T/C [11]: 8.04%
viability, T/C [12]: 107%
viability, T/C [13]: 107%
viability, T/C [14]: 109%
viability, T/C [15]: 96.1%
viability, T/C [16]: 66.3%
viability, T/C [17]: 7.18%
viability, T/C [18]: 106%
viability, T/C [19]: 110%
viability, T/C [20]: 110%
viability, T/C [21]: 92.5%
viability, T/C [22]: 63.9%
viability, T/C [23]: 7.4%
viability, T/C [24]: 98.5%
viability, T/C [25]: 99.2%
viability, T/C [26]: 110%
viability, T/C [27]: 90.7%
viability, T/C [28]: 57.4%
viability, T/C [29]: 4.98%
viability, T/C [30]: 92.5%
viability, T/C [31]: 96.9%
viability, T/C [32]: 92.2%
viability, T/C [33]: 87.2%
viability, T/C [34]: 45.6%
viability, T/C [35]: 2.44%

Compound: NS(=O)(=O)OCC1CC(n2ccc3c(NC4CCc5ccccc54)ncnc32)CC1O (stereo unspecified) + NC1CC1c1ccc(-c2cccc(O)c2)cc1
IC50 [1]: 190 nM
IC50 [2]: 178 nM
IC50 [3]: 168 nM
IC50 [4]: 175 nM
IC50 [5]: 165 nM
viability, T/C [6]: 113%
viability, T/C [7]: 96.6%
viability, T/C [8]: 94%
viability, T/C [9]: 21%
viability, T/C [10]: 9.54%
viability, T/C [11]: 13.7%
viability, T/C [12]: 104%
viability, T/C [13]: 92.9%
viability, T/C [14]: 88.5%
viability, T/C [15]: 18.2%
viability, T/C [16]: 9.34%
viability, T/C [17]: 14.3%
viability, T/C [18]: 117%
viability, T/C [19]: 98.6%
viability, T/C [20]: 79.1%
viability, T/C [21]: 20.3%
viability, T/C [22]: 9.8%
viability, T/C [23]: 15.8%
viability, T/C [24]: 110%
viability, T/C [25]: 88.1%
viability, T/C [26]: 83.4%
viability, T/C [27]: 20.8%
viability, T/C [28]: 10.9%
viability, T/C [29]: 16.5%
viability, T/C [30]: 99.9%
viability, T/C [31]: 89%
viability, T/C [32]: 76.6%
viability, T/C [33]: 21.3%
viability, T/C [34]: 13%
viability, T/C [35]: 15.4%

IC50 (curve of compound): > 10000 nM
Compound: CC(C)c1c(-c2ccccc2)nc2c(C#N)c[nH]n2c1=O
viability, T/C (compound 0.0316 µM): 105% and 103%
viability, T/C (compound 0.1 µM): 108% and 101%
viability, T/C (compound 0.316 µM): 99% and 105%
viability, T/C (compound 1 µM): 102% and 105%
viability, T/C (compound 3.16 µM): 104% and 110%
viability, T/C (compound 10 µM): 102% and 103%

Compound: Nc1ncn(C2CC(O)C(CO)S2)c(=O)n1 (stereo unspecified) + NC1CCC(NC2CC2c2ccccc2)CC1
IC50 [1]: 198 nM
IC50 [2]: 207 nM
IC50 [3]: 201 nM
IC50 [4]: 174 nM
IC50 [5]: 141 nM
viability, T/C (second compound 0.1 µM, first compound 0.000949 µM): 127%
viability, T/C (second compound 0.1 µM, first compound 0.003 µM): 127%
viability, T/C [6]: 130%
viability, T/C [7]: 111%
viability, T/C [8]: 78.3%
viability, T/C [9]: 34.1%
viability, T/C (second compound 0.316 µM, first compound 0.000949 µM): 135%
viability, T/C (second compound 0.316 µM, first compound 0.003 µM): 131%
viability, T/C [12]: 130%
viability, T/C [13]: 120%
viability, T/C [14]: 77.1%
viability, T/C [15]: 37%
viability, T/C (second compound 1 µM, first compound 0.000949 µM): 122%
viability, T/C (second compound 1 µM, first compound 0.003 µM): 123%
viability, T/C [18]: 128%
viability, T/C [19]: 115%
viability, T/C [20]: 74.5%
viability, T/C [21]: 36.9%
viability, T/C (second compound 3.16 µM, first compound 0.000949 µM): 117%
viability, T/C (second compound 3.16 µM, first compound 0.003 µM): 126%
viability, T/C [24]: 126%
viability, T/C [25]: 108%
viability, T/C [26]: 70.2%
viability, T/C [27]: 32.2%
viability, T/C (second compound 10 µM, first compound 0.000949 µM): 93.6%
viability, T/C (second compound 10 µM, first compound 0.003 µM): 91.8%
viability, T/C [30]: 104%
viability, T/C [31]: 98.6%
viability, T/C [32]: 61.9%
viability, T/C [33]: 27%

IC50 (curve of compound): 40 nM and 49.3 nM
Compound: CC1COCCN1c1cc(-c2ccnn2C)c2ccnc(-c3ccn[nH]3)c2n1 (stereo unspecified)
viability, T/C (compound 0.00316 µM): 101% and 93.8%
viability, T/C (compound 0.01 µM): 95.2% and 97.4%
viability, T/C (compound 0.0316 µM): 56.1% and 64.5%
viability, T/C (compound 0.1 µM): 23.4% and 27.1%
viability, T/C (compound 0.316 µM): 11.3% and 22.2%
viability, T/C (compound 1 µM): 12.7% and 18%

IC50 (curve of compound): 954 nM and 1380 nM
Compound: CC1COCCN1c1cc(C2(S(C)(=N)=O)CC2)nc(-c2ccnc3[nH]ccc23)n1 (stereo unspecified)
viability, T/C (compound 0.0316 µM): 101% and 103%
viability, T/C (compound 0.1 µM): 99.8% and 99.9%
viability, T/C (compound 0.316 µM): 91.4% and 99%
viability, T/C (compound 1 µM): 46.4% and 56.3%
viability, T/C (compound 3.16 µM): 24.9% and 32.6%
viability, T/C (compound 10 µM): 12.3% and 18.9%

Compound: CCN(c1cc(-c2ccc(CN3CCOCC3)cc2)cc(C(=O)NCc2c(C)cc(C)[nH]c2=O)c1C)C1CCOCC1 + NC1CCC(NC2CC2c2ccccc2)CC1
IC50 [1]: > 3000 nM
IC50 [2]: > 3000 nM
IC50 [3]: > 3000 nM
IC50 [4]: > 3000 nM
IC50 [5]: > 3000 nM
viability, T/C [6]: 121%
viability, T/C [7]: 122%
viability, T/C [8]: 117%
viability, T/C [9]: 114%
viability, T/C [10]: 114%
viability, T/C [11]: 111%
viability, T/C [12]: 119%
viability, T/C [13]: 118%
viability, T/C [14]: 114%
viability, T/C [15]: 116%
viability, T/C [16]: 109%
viability, T/C [17]: 106%
viability, T/C [18]: 116%
viability, T/C [19]: 114%
viability, T/C [20]: 115%
viability, T/C [21]: 109%
viability, T/C [22]: 105%
viability, T/C [23]: 106%
viability, T/C [24]: 111%
viability, T/C [25]: 105%
viability, T/C [26]: 109%
viability, T/C [27]: 110%
viability, T/C [28]: 97.2%
viability, T/C [29]: 105%
viability, T/C [30]: 87.2%
viability, T/C [31]: 90.2%
viability, T/C [32]: 91.2%
viability, T/C [33]: 96.5%
viability, T/C [34]: 88.3%
viability, T/C [35]: 89%

IC50 (compound alone, run of 12/07/2021): > 10000 nM
Compound: NC1CC1c1ccc(-c2cccc(O)c2)cc1 (stereo unspecified)
viability, T/C (compound 0.316 µM): 110% [middle of 25 runs]
viability, T/C (compound 10 µM): 89.2% [middle of 25 runs]

IC50 (curve of compound): 7010 nM and 5890 nM
Compound: COc1ccc([C@@H](O)c2cc(-c3ncnc4cc(N5CCOCC5)ccc34)c(F)cc2Cl)nn1
viability, T/C (compound 0.0316 µM): 105% and 102%
viability, T/C (compound 0.1 µM): 105% and 103%
viability, T/C (compound 0.316 µM): 107% and 99.3%
viability, T/C (compound 1 µM): 94.2% and 89.3%
viability, T/C (compound 3.16 µM): 66.3% and 59.2%
viability, T/C (compound 10 µM): 42.8% and 42.1%
